Values quoted from earlier work, collected in patent US20240189234A1, “SILICON PARTICLES FOR DRUG DELIVERY” (NACAMED AS, priority 2021, published 2024).

details: calculated log P values from Foye's Principles of Medicinal Chemistry

Structure (SMILES)	log P
CNCCCC12CCC(c3ccccc31)c1ccccc12 [maprotiline]	4.36
CN(C)CC/C=C1/c2ccccc2Sc2ccc(Cl)cc21 [chlorprothixene]	5.31
CC[C@H]1CN2CCc3cc(OC)c(OC)cc3[C@@H]2C[C@@H]1C[C@H]1NCCc2cc(OC)c(OC)cc21 [Emetine]	3.82
CC(=O)CC(c1ccccc1)c1c(O)c2ccccc2oc1=O (stereo not shown) [warfarin]	3.13
CN1CCC2=C(C1)C(c1ccccc1)c1ccccc12 (stereo not shown) [phenindamine]	3.81
CSc1ccc2c(c1)N(CCC1CCCCN1C)c1ccccc1S2 (stereo not shown) [thioridazine]	5.90
O=C(CCCN1CC=C(n2c(=O)[nH]c3ccccc32)CC1)c1ccc(F)cc1 [droperidol]	3.10
CN(C)CCC=C1c2ccccc2COc2ccccc21 [doxepin]	3.85
CCCCCCC(=O)OCCN1CCN(CCCN2c3ccccc3Sc3ccc(C(F)(F)F)cc32)CC1 [fluphenazine enanthate]	7.29
CN1CCC(=C2c3ccccc3C=Cc3ccccc32)CC1 [cyproheptadine]	4.92
O=c1[nH]c2ccccc2n1C1CCN(CCCC(c2ccc(F)cc2)c2ccc(F)cc2)CC1 [pimozide]	5.57
CNCC[C@@H](Oc1ccccc1C)c1ccccc1 [atomoxetine]	3.36
Cc1ccc(C(=O)Oc2ccc(C(O)CNC(C)(C)C)cc2OC(=O)c2ccc(C)cc2)cc1 (stereo not shown) [bitolterol]	4.16
CCC(Cc1c(I)cc(I)c(N)c1I)C(=O)O (stereo not shown) [iopanoic acid]	4.65
Cc1onc(-c2c(Cl)cccc2Cl)c1C(=O)N[C@@H]1C(=O)N2[C@@H]1SC(C)(C)[C@@H]2C(=O)O [dicloxacillin]	3.10
COC(=O)[C@H]1[C@H]2C[C@@H]3c4[nH]c5ccccc5c4CCN3C[C@H]2C[C@@H](OC(=O)c2cc(OC)c(OC)c(OC)c2)[C@@H]1OC [deserpidine]	4.95
O=C1c2ccccc2C(=O)C1c1ccccc1 [phenindione]	3.19
O=C(CCCCC(=O)Nc1c(I)cc(I)c(C(=O)O)c1I)Nc1c(I)cc(I)c(C(=O)O)c1I [iodipamide]	5.10
CN1C[C@H](C(=O)N[C@]2(C)O[C@@]3(O)[C@@H]4CCCN4C(=O)[C@H](Cc4ccccc4)N3C2=O)C[C@@H]2c3cccc4[nH]cc(c34)C[C@H]21 [dihydroergotamine]	5.69
Cc1cccc(Nc2ccccc2C(=O)O)c1C [mefenamic acid]	4.83
CCN(CC)CCN1c2ccccc2Sc2ccccc21 [diethazine]	5.55
O=C(CCCN1CCC2(CC1)C(=O)NCN2c1ccccc1)c1ccc(F)cc1 [spiperone]	3.25

Structure (SMILES)	log P
c1ccc(CN(CC2=NCCN2)c2ccccc2)cc1 [antazoline]	3.58
NCCCC[C@H](N[C@@H](CCc1ccccc1)C(=O)O)C(=O)N1CCC[C@H]1C(=O)O [Lisinopril]	3.47
CCC(=O)O[C@](Cc1ccccc1)(c1ccccc1)[C@H](C)CN(C)C [propoxyphene]	4.10
CC[C@]1(O)C[C@@H]2CN(CCc3c([nH]c4ccccc34)[C@@](C(=O)OC)(c3cc4c(cc3OC)N(C)[C@H]3[C@@](O)(C(=O)OC)[C@H](OC(C)=O)[C@]5(CC)C=CCN6CC[C@]43[C@@H]65)C2)C1 [vinblastine]	5.92
Cc1c(O)cccc1C(=O)N[C@@H](CSc1ccccc1)[C@H](O)CN1C[C@H]2CCCC[C@H]2C[C@H]1C(=O)NC(C)(C)C [nelfinavir]	7.28
CC(=O)O[C@H]1C[C@@]2(C)[C@@H](C[C@@H](O)[C@H]3[C@@]4(C)CC[C@@H](O)[C@@H](C)[C@@H]4CC[C@@]32C)/C1=C(\CCC=C(C)C)C(=O)O [fusidic acid]	5.76
CCCCN1CCCCC1C(=O)Nc1c(C)cccc1C (stereo not shown) [bupivacaine]	3.31
COc1ccc2c(c1)[C@]13CCCC[C@@H]1[C@H](C2)N(C)CC3 [dextromethorphan]	3.89
CN(C)CCC(c1ccc(Br)cc1)c1ccccn1 (stereo not shown) [brompheniramine]	3.24
CC(C)=CCN1CCC2(C)c3cc(O)ccc3CC1C2C (stereo not shown) [pentazocine]	4.15
CN1CCN=C(c2ccccc2)c2cc(Cl)ccc21 [medazepam]	3.89
Cc1ccsc1C(=CCCN1CCC[C@@H](C(=O)O)C1)c1sccc1C [tiagabine]	4.03
N[C@@H](Cc1cc(I)c(Oc2ccc(O)c(I)c2)c(I)c1)C(=O)O [liothyronine]	3.91
COc1ccc2c(c1)N(C[C@H](C)CN(C)C)c1ccccc1S2 [methotrimeprazine]	4.94
Cc1ccc(N(CC2=NCCN2)c2cccc(O)c2)cc1 [phentolamine]	4.08
CC(CN(C)C)CN1c2ccccc2Sc2ccccc21 (stereo not shown) [trimeprazine]	5.04
N#CC(CCN1CCC(C(=O)O)(c2ccccc2)CC1)(c1ccccc1)c1ccccc1 [diphenoxin]	3.97
COc1ccccc1Oc1c(NS(=O)(=O)c2ccc(C(C)(C)C)cc2)nc(-c2ncccn2)nc1OCCO [bosentan]	4.36
CCN(CC)CCCC(C)Nc1cc(OC)cc2cccnc12 (stereo not shown) [pamaquine]	4.38
CCCCNc1ccc(C(=O)OCCN(C)C)cc1 [tetracaine]	3.75
CN(C)C(=O)C(CCN1CCC(O)(c2ccc(Cl)cc2)CC1)(c1ccccc1)c1ccccc1 [loperamide]	4.15
Cc1ccc(/C(=C\CN2CCCC2)c2ccccn2)cc1 [triprolidine]	3.25

Structure (SMILES)	log P
CCOC(=O)C(C)(C)Oc1ccc(Cl)cc1 [clofibrate]	3.88
Cc1ncc2n1-c1ccc(Cl)cc1C(c1ccccc1F)=NC2 [midazolam]	3.80
c1ccc2c(c1)Sc1ccccc1N2CCN1CCCC1 [pyrathiazine]	4.15
CC(CN1c2ccccc2Sc2ccccc21)N(C)C (stereo not shown) [promethazine]	4.89
CC(=O)N(CC(C)C(=O)O)c1c(I)cc(I)c(N)c1I (stereo not shown) [iocetamic acid]	4.57
CN1CCCC(CN2c3ccccc3Sc3ccccc32)C1 (stereo not shown) [mepazine]	5.04
O=C(O)COc1ccc(C(=O)c2cccs2)c(Cl)c1Cl [ticrynfen]	3.05
CC(=O)OCCN1CCN(CCCN2c3ccccc3Sc3ccc(Cl)cc32)CC1 [thiopropazate]	4.76
OCc1cc(C(O)CNCCCCCCOCCCCc2ccccc2)ccc1O (stereo not shown) [salmeterol]	3.71
CC(C)(C)C(=O)OCOC(=O)[C@@H]1N2C(=O)[C@@H](NC(=O)[C@H](N)c3ccccc3)[C@H]2SC1(C)C [pivampicillin]	3.88
O=C(O)c1cc(-c2ccc(F)cc2F)ccc1O [diflunisal]	3.65
OC(c1ccccc1)(c1ccccc1)C1CCCCN1 (stereo not shown) [pipradrol]	3.61
CCN(CC)CCN1C(=O)CN=C(c2ccccc2F)c2cc(Cl)ccc21 [flurazepam]	4.84
C[C@H]1[C@H]2Cc3ccc(O)cc3[C@]1(C)CCN2CC1CC1 [cyclazocine]	3.52
C[C@]12CC[C@@H]3c4ccc(O)cc4CC[C@H]3[C@@H]1CCC2=O [estrone]	3.62
Clc1ccccc1C(c1ccccc1)(c1ccccc1)n1ccnc1 [clotrimazole]	4.92
CN1CCC(CN2c3ccccc3Sc3ccccc32)C1 (stereo not shown) [methdilazine]	4.64
CC(=O)Oc1cc2c(s1)CCN(C(C(=O)C1CC1)c1ccccc1F)C2 (stereo not shown) [prasugel]	4.31
Clc1ccc(C/C(=C\CN2CCCC2)c2ccccc2)cc1 [pyrrobutamine]	4.57
CN(C)CCCN1c2ccccc2Sc2ccccc21 [promazine]	4.69
Cc1ccc(O)c([C@H](CCN(C(C)C)C(C)C)c2ccccc2)c1 [tolterodine]	5.23
CCN(CC)C(=O)/C(C#N)=C/c1cc(O)c(O)c([N+](=O)[O-])c1 [entacapone]	3.02

Structure (SMILES)	log P
Cc1ccccc1C(OCCN(C)C)c1ccccc1 (stereo not shown) [orphenadrine]	3.33
CCCCCc1cc(O)c2c(c1)OC(C)(C)[C@@H]1CCC(C)=C[C@@H]21 [tetrahydrocannabinol]	6.84
CCCCc1nc(Cl)c(CO)n1Cc1ccc(-c2ccccc2-c2nn[nH]n2)cc1 [losartan]	3.46
O=C(O)c1ccccc1Nc1cccc(C(F)(F)F)c1 [flufenamic acid]	5.22
CCN(CC)C(C)CN1c2ccccc2Sc2ccccc21 (stereo not shown) [ethopropazine]	4.77
CC(C)[C@@]1(NC(=O)[C@@H]2C[C@@H]3c4cccc5[nH]cc(c45)C[C@H]3N(C)C2)O[C@@]2(O)[C@@H]3CCCN3C(=O)[C@H](Cc3ccccc3)N2C1=O [dihydroergocristine]	6.55
COC(=O)[C@H]1[C@H]2C[C@@H]3c4[nH]c5cc(OC)ccc5c4CCN3C[C@H]2C[C@@H](OC(=O)c2cc(OC)c(OC)c(OC)c2)[C@@H]1OC [reserpine]	3.65
CC1(C)[C@@H](OC(=O)CCC(=O)O)CC[C@]2(C)[C@H]3C(=O)C=C4[C@@H]5C[C@@](C)(C(=O)O)CC[C@]5(C)CC[C@@]4(C)[C@]3(C)CC[C@@H]12 [carbenoxolone]	6.63
OCCN1CCN(CCCN2c3ccccc3Sc3ccc(Cl)cc32)CC1 [perphenazine]	3.94
O=C(Oc1ccccc1C(=O)O)c1ccccc1O [salsalate]	3.29
CN[C@H]1CC[C@@H](c2ccc(Cl)c(Cl)c2)c2ccccc21 [sertraline]	5.08
Cc1ccc(Cl)c(Nc2ccccc2C(=O)O)c1Cl [meclofenamic acid]	5.44
CN(C)CCCN1c2ccccc2Sc2ccc(Cl)cc21 [chlorpromazine]	5.35
CCCCCCC(C)(C)c1cc(O)c2c(c1)OC(C)(C)C1CCC(=O)CC21 (stereo not shown) [nabilone]	7.25
O=C(O)Cc1ccccc1Oc1ccc(Cl)cc1Cl [fenclofenac]	4.59
CCN(CC)CCCC(C)Nc1c2ccc(Cl)cc2nc2ccc(OC)cc12 (stereo not shown) [quinacrine]	5.59
CN(C)CCOc1ccccc1Cc1ccccc1 [phenyltoloxamine]	3.46
CN(C)CCOC(c1ccccc1)c1ccc(Br)cc1 (stereo not shown) [bromodiphenhydramine]	4.03
CCOC(=O)OC(C)OC(=O)[C@@H]1N2C(=O)[C@@H](NC(=O)[C@H](N)c3ccccc3)[C@H]2SC1(C)C (stereo partly shown) [bacampicillin]	3.52
